Experimental data reported in ChEMBL document CHEMBL6074678, “Selectively Antagonizing the NOD1-Mediated Inflammatory Signaling Pathway Mitigates the Gastric Inflammation Induced by Helicobacter pylori Infection” (J Med Chem, 2024).
Active and inactive are the calls of the source. No cut-off for these calls is given here.

Columns and labels:
[1] = target: T1, Nucleotide-binding oligomerization domain-containing protein 1 (Homo sapiens) (UniProt Q9Y239); experiment: Antagonist activity at human NOD1 expressed in HEK-Blue cells assessed as decrease in SEAP secretion incubated for 3 hrs followed by C12-iE-DAP stimulation for 20 hrs by spectrophotometry; format: cell-based; settings: HEK-Blue hNOD1, filed as antagonist, time 23.0 hrs
T1 sequence (whole entry): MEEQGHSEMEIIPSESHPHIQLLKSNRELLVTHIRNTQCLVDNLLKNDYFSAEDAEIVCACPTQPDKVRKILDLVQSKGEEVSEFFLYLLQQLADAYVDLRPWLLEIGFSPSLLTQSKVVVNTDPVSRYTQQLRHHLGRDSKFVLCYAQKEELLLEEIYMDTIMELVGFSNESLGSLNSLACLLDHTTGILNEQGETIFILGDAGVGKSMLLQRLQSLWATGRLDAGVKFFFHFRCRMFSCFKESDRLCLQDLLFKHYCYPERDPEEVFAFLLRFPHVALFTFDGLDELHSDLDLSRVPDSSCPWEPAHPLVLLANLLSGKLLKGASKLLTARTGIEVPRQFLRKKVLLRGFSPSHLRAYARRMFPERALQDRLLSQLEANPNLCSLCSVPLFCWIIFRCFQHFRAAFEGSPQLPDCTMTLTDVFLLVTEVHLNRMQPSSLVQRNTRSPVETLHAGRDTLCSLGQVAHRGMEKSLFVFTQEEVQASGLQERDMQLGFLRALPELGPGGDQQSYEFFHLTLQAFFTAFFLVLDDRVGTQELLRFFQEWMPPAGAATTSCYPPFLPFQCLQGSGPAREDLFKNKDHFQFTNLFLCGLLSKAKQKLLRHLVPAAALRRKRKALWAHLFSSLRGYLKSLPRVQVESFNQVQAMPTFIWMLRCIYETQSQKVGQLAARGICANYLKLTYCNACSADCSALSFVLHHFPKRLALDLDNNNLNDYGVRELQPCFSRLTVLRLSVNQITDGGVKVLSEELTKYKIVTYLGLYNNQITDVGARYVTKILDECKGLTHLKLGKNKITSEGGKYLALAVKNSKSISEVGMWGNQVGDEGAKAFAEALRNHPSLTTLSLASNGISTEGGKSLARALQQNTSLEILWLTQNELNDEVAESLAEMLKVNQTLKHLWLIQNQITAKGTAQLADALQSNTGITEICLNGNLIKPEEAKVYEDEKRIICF

[2] = target: T2, Nucleotide-binding oligomerization domain-containing protein 1 (Mus musculus) (UniProt Q8BHB0); experiment: Antagonist activity at mouse NOD1 expressed in HEK-Blue cells assessed as decrease in SEAP secretion incubated for 3 hrs followed by C12-iE-DAP stimulation for 20 hrs by spectrophotometry; format: cell-based; settings: HEK-Blue mNOD1, filed as antagonist, time 23.0 hrs
T2 sequence (whole entry): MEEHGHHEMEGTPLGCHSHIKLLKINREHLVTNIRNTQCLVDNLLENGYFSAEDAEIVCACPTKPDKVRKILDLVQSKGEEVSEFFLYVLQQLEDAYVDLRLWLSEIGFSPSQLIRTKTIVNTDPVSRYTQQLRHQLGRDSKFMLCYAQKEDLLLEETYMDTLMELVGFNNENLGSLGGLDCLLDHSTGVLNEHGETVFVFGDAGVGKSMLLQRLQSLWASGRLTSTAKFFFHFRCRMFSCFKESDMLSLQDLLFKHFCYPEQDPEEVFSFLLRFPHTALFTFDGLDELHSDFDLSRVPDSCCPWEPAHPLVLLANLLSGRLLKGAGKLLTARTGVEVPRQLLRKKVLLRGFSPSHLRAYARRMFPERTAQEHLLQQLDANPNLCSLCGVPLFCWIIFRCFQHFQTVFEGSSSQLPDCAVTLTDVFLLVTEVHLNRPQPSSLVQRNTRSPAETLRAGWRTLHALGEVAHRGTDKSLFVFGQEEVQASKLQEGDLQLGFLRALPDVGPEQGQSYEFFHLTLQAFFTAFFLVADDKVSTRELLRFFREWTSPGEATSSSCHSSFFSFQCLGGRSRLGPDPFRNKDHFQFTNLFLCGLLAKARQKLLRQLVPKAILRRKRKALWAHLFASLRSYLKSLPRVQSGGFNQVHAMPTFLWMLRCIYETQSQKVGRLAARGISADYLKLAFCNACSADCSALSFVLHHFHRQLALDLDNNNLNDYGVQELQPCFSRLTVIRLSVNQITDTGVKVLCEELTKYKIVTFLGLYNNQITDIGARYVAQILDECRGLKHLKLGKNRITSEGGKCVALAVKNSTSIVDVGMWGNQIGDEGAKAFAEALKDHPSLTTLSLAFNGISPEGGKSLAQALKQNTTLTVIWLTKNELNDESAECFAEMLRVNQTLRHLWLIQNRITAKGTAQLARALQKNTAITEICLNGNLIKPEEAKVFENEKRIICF

[3] = target: T3, Nucleotide-binding oligomerization domain-containing protein 1 (Mus musculus, UniProt Q8BHB0); experiment: Antagonist activity at mouse NOD1 expressed in HEK293 cells assessed as decrease in NF-kappaB activation; format: cell-based
T3 sequence (Q8BHB0 whole entry): T2 sequence (whole entry)

[4] = Cytotoxicity against HEK-Blue hNOD1 cells by SRB assay; format: toxicity, cell-based; settings: human
[5] = target: T1, Nucleotide-binding oligomerization domain-containing protein 1 (Homo sapiens); experiment: Antagonist activity at NOD1 in human THP-1 cells assessed as decrease in phosphorylated RIP2 level at 0.1 to 1 uM incubated for 1 hr followed by C12-iE-DAP stimulation for 30 mins by Western blot analysis; format: cell-based; settings: filed as antagonist, dose 0.1-1 µM, time 1.5 hrs
[6] = target: T1, Nucleotide-binding oligomerization domain-containing protein 1 (Homo sapiens); experiment: Antagonist activity at NOD1 in human THP-1 cells assessed as decrease in phosphorylated JNK level at 0.1 to 1 uM incubated for 1 hr followed by C12-iE-DAP stimulation for 30 mins by Western blot analysis; format: cell-based; settings: filed as antagonist, dose 0.1-1 µM, time 1.5 hrs
[7] = target: T2, Nucleotide-binding oligomerization domain-containing protein 1 (Mus musculus); experiment: Antagonist activity at NOD1 in mouse BMDM cells assessed as decrease in phosphorylated RIP2 level at 0.1 to 1 uM incubated for 1 hr followed by C12-iE-DAP stimulation for 30 mins by Western blot analysis; format: cell-based; settings: filed as antagonist, dose 0.1-1 µM, time 1.5 hrs
AGS = experiment: Anti-inflammatory activity in human AGS cells assessed as decrease in CXCL8 mRNA level at 1 uM pretreated for 1 hr followed by C12-iE-DAP stimulation for 2 hrs by RT-qPCR analysis; format: functional, cell-based; settings: time 3.0 hrs
THP-1 [8] = experiment: Anti-inflammatory activity in human THP-1 cells assessed as decrease in IL-6 mRNA level at 5 uM pretreated for 1 hr followed by infection with Helicobacter pylori for 2 hrs by RT-qPCR analysis relative to control; format: functional; set-up: scale not given: the % may be the effect or the level left; settings: time 3 hrs
THP-1 [9] = experiment: Anti-inflammatory activity in human THP-1 cells assessed as decrease in CXCL8 mRNA level at 5 uM pretreated for 1 hr followed by infection with Helicobacter pylori for 2 hrs by RT-qPCR analysis; format: functional, cell-based; settings: time 3.0 hrs
[10] = AUC (infinity) in C57BL/6 mouse at 2 mg/kg, iv by LC-MS/MS analysis; format: ADME, organism-based; settings: in vivo
[11] = AUC (infinity) in C57BL/6 mouse at 20 mg/kg, po by LC-MS/MS analysis; format: ADME, organism-based; settings: in vivo
[12] = Oral bioavailability in C57BL/6 mouse at 20 mg/kg by LC-MS/MS analysis; format: ADME, organism-based; settings: in vivo

## CS(=O)(=O)c1ccc2nc(Cl)n(-c3ccc(Cl)c(NS(=O)(=O)c4c(F)cccc4F)c3)c(=O)c2c1
[1]
  Activity: Dose-dependent-effect
[2]
  Activity: Dose-dependent-effect
[3]
  IC50: 32 nM
[4]
  Activity: Non-toxic
[5]
  inhibition: Active
[6]
  inhibition: Active
[7]
  inhibition: Active
AGS
  Activity: Active
THP-1 [8]
  Activity: 100%
THP-1 [9]
  Activity: Active
[10]
  AUC: 75.3 ng·h/mL
[11]
  AUC(0-inf): 35.9 ng·h/mL
[12]
  bioavailability: 4.77%
